Target: T1, Glutamate receptor ionotropic, kainate 4 (Homo sapiens, UniProt Q16099)
T1 sequence (Q16099 whole entry): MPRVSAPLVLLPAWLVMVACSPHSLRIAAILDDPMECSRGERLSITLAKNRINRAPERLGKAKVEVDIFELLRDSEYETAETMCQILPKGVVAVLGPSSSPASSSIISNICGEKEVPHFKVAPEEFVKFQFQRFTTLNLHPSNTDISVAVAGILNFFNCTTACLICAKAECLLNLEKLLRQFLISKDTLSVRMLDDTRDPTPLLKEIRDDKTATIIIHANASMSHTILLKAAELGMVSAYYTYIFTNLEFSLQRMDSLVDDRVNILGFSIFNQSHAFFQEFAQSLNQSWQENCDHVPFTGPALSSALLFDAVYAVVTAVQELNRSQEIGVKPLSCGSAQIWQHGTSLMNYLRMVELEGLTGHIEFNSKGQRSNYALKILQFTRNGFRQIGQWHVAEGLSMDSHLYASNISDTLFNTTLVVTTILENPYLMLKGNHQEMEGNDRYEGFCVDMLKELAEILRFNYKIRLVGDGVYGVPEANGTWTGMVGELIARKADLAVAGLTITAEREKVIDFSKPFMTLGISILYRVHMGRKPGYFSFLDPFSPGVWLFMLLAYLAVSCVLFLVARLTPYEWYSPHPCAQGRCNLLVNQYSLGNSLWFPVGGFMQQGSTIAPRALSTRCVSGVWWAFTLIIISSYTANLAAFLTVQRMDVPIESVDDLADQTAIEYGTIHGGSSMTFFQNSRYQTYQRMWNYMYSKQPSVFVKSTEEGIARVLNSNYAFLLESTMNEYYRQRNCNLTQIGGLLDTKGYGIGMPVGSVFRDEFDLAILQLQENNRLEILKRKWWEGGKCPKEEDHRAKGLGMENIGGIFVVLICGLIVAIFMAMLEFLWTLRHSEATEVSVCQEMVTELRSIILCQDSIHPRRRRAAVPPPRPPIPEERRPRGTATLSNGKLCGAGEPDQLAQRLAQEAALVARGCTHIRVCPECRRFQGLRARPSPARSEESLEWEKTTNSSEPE

SMILES | Ki
C/C(=C\C=C\[C@@H](C)C(=O)O)[C@H]1CN[C@H](C(=O)O)[C@H]1CC(=O)O | 10.5 nM
N[C@@H](Cn1oc(=O)[nH]c1=O)C(=O)O [2-amino-3-(3,5-dioxo[1,2,4]oxadiazolidin-2-yl)propionic acid] | 6.43 nM
N#Cc1cc2nc(O)c(O)nc2cc1[N+](=O)[O-] [7-Cyano-3-hydroxy-6-nitro-quinoxalin-2-ol anion] | > 10000 nM
Cc1onc(O)c1CC(N)C(=O)O (stereo not drawn) [(RS)-2-amino-3-(3-hydroxy-5-methylisoxazol-4-yl)-propionicacid] | 1970 nM
C=C(C)[C@H]1CN[C@H](C(=O)O)[C@H]1CC(=O)O [Digensaeure] | 2.29 nM
CN[C@H](CC(=O)O)C(=O)O [NMDA] | > 10000 nM
O=C1N=c2cc([N+](=O)[O-])c([N+](=O)[O-])cc2=NC1=O [NSC_3140] | 8490 nM
CC(C)[C@H]1CN[C@H](C(=O)O)[C@H]1CC(=O)O [dihydrokainic acid] | 3840 nM
NC(CCC(=O)O)C(=O)O (centres undefined) [glutamic acid dianion] | 18.3 nM
